Measured values published in paper PMC11944670, “Reshaping [^99mTc]Tc-DT11 to DT14D Tagged with Trivalent Radiometals for NTS1R-Positive Cancer Theranostics” (Pharmaceutics, 2025).
Residues, ends and D or L forms follow the SMILES beside them. *: point of attachment. DOTA = O=C(O)CN1CCN(CC(=O)O)CCN(CC(=O)*)CCN(CC(=O)O)CC1; X1 = Cc1ccc(CCCC(=O)NCCOCCOCCOCCOCC(=O)*)cc1; βAla = NCCC(=O)O

System: NTS1R-positive AsPC-1 xenografts
Assay: in vivo
Parameters: species or system mice
Settings: male, SCID, mouse, iv
Description: The distribution of [^67Ga]Ga/[^111In]In/[^177Lu]Lu-DT14D was investigated in male severe combined immunodeficiency (SCID) mice (49 mice in total, 6 weeks of age on arrival date, 22 ± 4 g, NCSR “Demokritos” Animal House, Athens, Greece) bearing NTS1R-positive AsPC-1 xenografts in their flanks. For xenograft induction, suspensions of freshly harvested AsPC-1 cells (5 × 10^6 cells in 150 µL sterile PBS) were subcutaneously injected into the mice’s flanks. The animals were kept under aseptic conditions and 4 weeks later developed well palpable masses at the inoculation sites (100 ± 50 mg) and biodistribution was conducted. On the day of the experiment, the animals received a bolus (100 μL, in vehicle: saline/EtOH 9/1 v/v) containing the radioligand via the tail vein. The following groups of four animals per time point, per treatment, were included per radioligand (the 4 h block groups comprised 3 animals instead) including the respective (radio)ligand amounts injected: i. 78–91 kBq [^67Ga]Ga-DT14D corresponding to 7–17 pmol DT14D at 1 and 4 h pi plus 4 h block (coinjection with 100 µg NT); ii. 74–92 kBq [^111In]In-DT14D corresponding to 20–25 pmol at 4 h (controls), 4 h pi (Entresto®; animals receiving a slurry of 12 mg/200 µL Entresto® oral gavage 30 min in advance) and 4 h block (coinjection with 100 µg NT); 24 h pi (including both controls and Entresto® mice groups); and iii. 730 kBq [^177Lu]Lu-DT14D corresponding to 40 pmol DT14D at 4, 24, 48, and 72 h pi plus 4 h block (co-injection with 100 µg NT). The animals were euthanized at predetermined time intervals, dissected and blood samples, organs of interest, and tumors were collected, weighed, and counted in the gamma counter. Biodistribution data were calculated as percent of the injected activity per gram tissue (%IA/g) with the aid of suitable standards of the administered activity. Results as the mean %IA/g values ± sd were obtained and statistical analysis was performed with PRISM^TM GraphPad—10.2 Software (San Diego, CA/USA), applying 2-way ANOVA with Tukey’s post hoc analysis, or, in the case of two variables, Šídák’s multiple comparisons test was adopted; differences with p < 0.05 were considered as statistically significant.

SMILES	Biodistribution, Blood (4 h) [%IA/g]	Biodistribution, Femur (4 h) [%IA/g]	Biodistribution, Heart (4 h) [%IA/g]	Biodistribution, Intestines (4 h) [%IA/g]	Biodistribution, Kidneys (4 h) [%IA/g]	Biodistribution, Liver (4 h) [%IA/g]	Biodistribution, Lungs (4 h) [%IA/g]	Biodistribution, Muscle (4 h) [%IA/g]	Biodistribution, Pancreas (4 h) [%IA/g]	Biodistribution, Spleen (4 h) [%IA/g]	Tumor/Blood ratio (4 h)	Tumor/Heart ratio (4 h)	Tumor/Intestines ratio (4 h)	Tumor/Liver ratio (4 h)	Tumor/Muscle ratio (4 h)	Tumor/Pancreas ratio (4 h)	Tumor/Spleen ratio (4 h)	Biodistribution, Stomach (4 h) [%IA/g]	Biodistribution, Femur (24 h) [%IA/g]	Biodistribution, Intestines (24 h) [%IA/g]	further results
CC[C@H](C)[C@H](NC(=O)[C@H](Cc1ccc(O)cc1)NC(=O)[C@@H]1CCCN1C(=O)[C@H](CCCNC(=N)N)NC(=O)[C@H](CCCNC(=N)N)NC(=O)[C@H](CCCCNC(=O)COCCOCCOCCOCCNC(=O)CCCc1ccc(C)cc1)NC(=O)CCNC(=O)CCNC(=O)CCNC(=O)CN1CCN(CC(=O)O)CCN(CC(=O)O)CCN(CC(=O)O)CC1)C(=O)N[C@@H](CC(C)C)C(=O)O [[^67Ga]Ga-DT14D] [metal not drawn] ({DOTA-βAla-βAla-βAla}-K(X1)RRPYIL-OH)	2.15 ± 0.40	1.67 ± 0.36	0.76 ± 0.12	2.32 ± 0.39	3.87 ± 0.96	3.44 ± 0.15	1.34 ± 0.20	0.27 ± 0.04	0.51 ± 0.08	1.75 ± 0.67	2.06 ± 0.21	5.75 ± 0.17	1.89 ± 0.06	1.28 ± 0.24	16.50 ± 2.36	8.69 ± 0.52	2.50 ± 0.23	–	–	–	–
CC[C@H](C)[C@H](NC(=O)[C@H](Cc1ccc(O)cc1)NC(=O)[C@@H]1CCCN1C(=O)[C@H](CCCNC(=N)N)NC(=O)[C@H](CCCNC(=N)N)NC(=O)[C@H](CCCCNC(=O)COCCOCCOCCOCCNC(=O)CCCc1ccc(C)cc1)NC(=O)CCNC(=O)CCNC(=O)CCNC(=O)CN1CCN(CC(=O)O)CCN(CC(=O)O)CCN(CC(=O)O)CC1)C(=O)N[C@@H](CC(C)C)C(=O)O [[^111In]In-DT14D] [metal not drawn] ({DOTA-βAla-βAla-βAla}-K(X1)RRPYIL-OH)	0.66 ± 0.19	0.50 ± 0.06	0.28 ± 0.06	1.34 ± 0.06	–	0.45 ± 0.04	0.79 ± 0.12	0.13 ± 0.03	0.24 ± 0.04	0.84 ± 0.07	–	–	–	–	–	–	–	0.39 ± 0.05	1.35 ± 0.36	0.69 ± 0.09	Biodistribution, Blood (24 h): 0.46 ± 0.08 %IA/g; Biodistribution, Heart (24 h): 0.62 ± 0.23 %IA/g; Biodistribution, Liver (24 h): 0.33 ± 0.08 %IA/g; Biodistribution, Lungs (24 h): 0.61 ± 0.09 %IA/g; Biodistribution, Muscle (24 h): 0.40 ± 0.10 %IA/g; Biodistribution, Pancreas (24 h): 0.63 ± 0.39 %IA/g; Biodistribution, Spleen (24 h): 1.59 ± 0.14 %IA/g; Biodistribution, Stomach (24 h): 0.27 ± 0.10 %IA/g; Tumor/Intestines ratio (24 h): 3.16 ± 0.49; Tumor/Kidneys ratio (24 h): 1.42 ± 0.25; Tumor/Spleen ratio (24 h): 1.84 ± 0.15
CC[C@H](C)[C@H](NC(=O)[C@H](Cc1ccc(O)cc1)NC(=O)[C@@H]1CCCN1C(=O)[C@H](CCCNC(=N)N)NC(=O)[C@H](CCCNC(=N)N)NC(=O)[C@H](CCCCNC(=O)COCCOCCOCCOCCNC(=O)CCCc1ccc(C)cc1)NC(=O)CCNC(=O)CCNC(=O)CCNC(=O)CN1CCN(CC(=O)O)CCN(CC(=O)O)CCN(CC(=O)O)CC1)C(=O)N[C@@H](CC(C)C)C(=O)O [[^177Lu]Lu-DT14D] [metal not drawn] ({DOTA-βAla-βAla-βAla}-K(X1)RRPYIL-OH)	0.72 ± 0.19	0.45 ± 0.06	0.32 ± 0.09	1.27 ± 0.14	3.24 ± 0.20	1.34 ± 0.14	1.63 ± 0.86	0.11 ± 0.02	0.21 ± 0.03	1.36 ± 0.37	5.51± 1.56	12.36 ± 3.08	2.99 ± 0.57	2.83 ± 0.45	34.86 ± 6.98	18.16 ± 3.31	2.83 ± 0.35	0.33 ± 0.12	0.34 ± 0.03	0.45 ± 0.03	Tumor/Kidneys ratio (4 h): 1.17 ± 0.15; Tumor/Lungs ratio (4 h): 2.97 ± 1.75; Tumor/Stomach ratio (4 h): 12.29 ± 3.81; Biodistribution, Liver (24 h): 1.18 ± 0.18 %IA/g; Biodistribution, Lungs (24 h): 0.17 ± 0.01 %IA/g; Biodistribution, Muscle (24 h): 0.03 ± 0.00 %IA/g; Biodistribution, Spleen (24 h): 1.06 ± 0.16 %IA/g; Tumor/Blood ratio (24 h): 33.51 ± 2.94; Tumor/Heart ratio (24 h): 25.00 ± 3.78; Tumor/Intestines ratio (24 h): 3.95 ± 0.39; Tumor/Kidneys ratio (24 h): 1.46 ± 0.33; Tumor/Liver ratio (24 h): 1.54 ± 0.32; Tumor/Lungs ratio (24 h): 9.32 ± 2.56; Tumor/Muscle ratio (24 h): 58.07 ± 8.34; Tumor/Pancreas ratio (24 h): 22.31 ± 1.64; Tumor/Spleen ratio (24 h): 1.70 ± 0.32; Tumor/Stomach ratio (24 h): 31.97 ± 8.07
